# Species on record: Rattus norvegicus
# Experiment: DrugMatrix - Regimen: Daily Repeat
# Format: toxicity, organism-based, Sprague-Dawley
# Parameters: regimen Daily Repeat, gender Male, age 6-8 weeks
# Details: in vivo, po, route oral GAVAGE, vehicle 100 % WATER; for ABSOLUTE BASOPHIL / ABSOLUTE EOSINOPHIL / ABSOLUTE LYMPHOCYTE / ABSOLUTE MONOCYTE / ABSOLUTE SEGMENTED NEUTROPHIL / BASOPHIL / EOSINOPHIL / ERYTHROCYTE COUNT / HEMATOCRIT / HEMOGLOBIN / LEUKOCYTE COUNT / LYMPHOCYTE / MEAN CORPUSCULAR HEMOGLOBIN / MEAN CORPUSCULAR HEMOGLOBIN CONCENTRATION / MEAN CORPUSCULAR VOLUME / MONOCYTE / NEUTROPHIL / NUCLEATED RED BLOOD CELLS / PLATELET COUNT: tissue Blood; for ALANINE AMINOTRANSFERASE / ALBUMIN / ALKALINE PHOSPHATASE / ASPARTATE AMINOTRANSFERASE / BLOOD UREA NITROGEN / CARBON DIOXIDE / CHLORIDE / CHOLESTEROL / CREATINE PHOSPHOKINASE / CREATININE / GLUCOSE / LACTATE DEHYDROGENASE / LIPASE / PHOSPHORUS / POTASSIUM / SODIUM / TOTAL BILIRUBIN / TOTAL PROTEIN / URIC ACID: tissue Plasma
# [1] = 30 mg/kg, 72 h, dose level Low, time 3 day
# [2] = 30 mg/kg, 120 h, dose level Low, time 5 day
# [3] = 3000 mg/kg, 72 h, dose level High, time 3 day
# [4] = 3000 mg/kg, 120 h, dose level High, time 5 day
compound,measurement,setting,value
O=C(O)CC(O)(CC(=O)O)C(=O)O [CITRIC ACID],ABSOLUTE BASOPHIL,[1],0 CELLS/uL
same,ABSOLUTE EOSINOPHIL,[1],0 CELLS/uL
same,ABSOLUTE LYMPHOCYTE,[1],12691.33 CELLS/uL
same,ABSOLUTE MONOCYTE,[1],367.33 CELLS/uL
same,ABSOLUTE SEGMENTED NEUTROPHIL,[1],908 CELLS/uL
same,BASOPHIL,[1],0%
same,EOSINOPHIL,[1],0%
same,ERYTHROCYTE COUNT,[1],5.83 x10E6/uL
same,HEMATOCRIT,[1],37%
same,HEMOGLOBIN,[1],14.67 G/DL
same,LEUKOCYTE COUNT,[1],13.97 x10E3/uL
same,LYMPHOCYTE,[1],91%
same,MEAN CORPUSCULAR HEMOGLOBIN,[1],25.17 pg
same,MEAN CORPUSCULAR HEMOGLOBIN CONCENTRATION,[1],39.67 G/DL
same,MEAN CORPUSCULAR VOLUME,[1],63.43 fL
same,MONOCYTE,[1],2.67%
same,NEUTROPHIL,[1],6.33%
same,NUCLEATED RED BLOOD CELLS,[1],0 /100WBC
same,PLATELET COUNT,[1],1121.33 x10E3/uL
same,ALANINE AMINOTRANSFERASE,[1],54.67 u/L
same,ALBUMIN,[1],4.2 G/DL
same,ALKALINE PHOSPHATASE,[1],442.33 u/L
same,ASPARTATE AMINOTRANSFERASE,[1],93.33 u/L
same,BLOOD UREA NITROGEN,[1],13.33 mg/dL
same,CARBON DIOXIDE,[1],23 mmol/L
same,CHLORIDE,[1],102.33 MEQ/L
same,CHOLESTEROL,[1],85.67 mg/dL
same,CREATINE PHOSPHOKINASE,[1],514.33 u/L
same,CREATININE,[1],0.18 mg/dL
same,GLUCOSE,[1],184.33 mg/dL
same,LACTATE DEHYDROGENASE,[1],173 u/L
same,LIPASE,[1],9.67 u/L
same,PHOSPHORUS,[1],12.77 mg/dL
same,POTASSIUM,[1],6.46 MEQ/L
same,SODIUM,[1],146.53 MEQ/L
same,TOTAL BILIRUBIN,[1],0.2 mg/dL
same,TOTAL PROTEIN,[1],5.97 G/DL
same,URIC ACID,[1],2.5 mg/dL
same,ABSOLUTE BASOPHIL,[2],0 CELLS/uL
same,ABSOLUTE EOSINOPHIL,[2],0 CELLS/uL
same,ABSOLUTE LYMPHOCYTE,[2],16594.33 CELLS/uL
same,ABSOLUTE MONOCYTE,[2],186.67 CELLS/uL
same,ABSOLUTE SEGMENTED NEUTROPHIL,[2],1885.67 CELLS/uL
same,BASOPHIL,[2],0%
same,EOSINOPHIL,[2],0%
same,ERYTHROCYTE COUNT,[2],5.64 x10E6/uL
same,HEMATOCRIT,[2],37.07%
same,HEMOGLOBIN,[2],14.63 G/DL
same,LEUKOCYTE COUNT,[2],18.67 x10E3/uL
same,LYMPHOCYTE,[2],88.67%
same,MEAN CORPUSCULAR HEMOGLOBIN,[2],25.97 pg
same,MEAN CORPUSCULAR HEMOGLOBIN CONCENTRATION,[2],39.47 G/DL
same,MEAN CORPUSCULAR VOLUME,[2],65.7 fL
same,MONOCYTE,[2],1%
same,NEUTROPHIL,[2],10.33%
same,NUCLEATED RED BLOOD CELLS,[2],0 /100WBC
same,PLATELET COUNT,[2],1295.33 x10E3/uL
same,ALANINE AMINOTRANSFERASE,[2],48 u/L
same,ALBUMIN,[2],4.2 G/DL
same,ALKALINE PHOSPHATASE,[2],374.67 u/L
same,ASPARTATE AMINOTRANSFERASE,[2],80.67 u/L
same,BLOOD UREA NITROGEN,[2],18 mg/dL
same,CARBON DIOXIDE,[2],23 mmol/L
same,CHLORIDE,[2],103.67 MEQ/L
same,CHOLESTEROL,[2],77 mg/dL
same,CREATINE PHOSPHOKINASE,[2],316.33 u/L
same,CREATININE,[2],0.18 mg/dL
same,GLUCOSE,[2],154.33 mg/dL
same,LACTATE DEHYDROGENASE,[2],396.33 u/L
same,LIPASE,[2],10.33 u/L
same,PHOSPHORUS,[2],13.53 mg/dL
same,POTASSIUM,[2],6.74 MEQ/L
same,SODIUM,[2],147.27 MEQ/L
same,TOTAL BILIRUBIN,[2],0.2 mg/dL
same,TOTAL PROTEIN,[2],6.03 G/DL
same,URIC ACID,[2],1.4 mg/dL
same,ABSOLUTE BASOPHIL,[3],0 CELLS/uL
same,ABSOLUTE EOSINOPHIL,[3],0 CELLS/uL
same,ABSOLUTE LYMPHOCYTE,[3],12922.33 CELLS/uL
same,ABSOLUTE MONOCYTE,[3],727.33 CELLS/uL
same,ABSOLUTE SEGMENTED NEUTROPHIL,[3],1850.33 CELLS/uL
same,BASOPHIL,[3],0%
same,EOSINOPHIL,[3],0%
same,ERYTHROCYTE COUNT,[3],5.42 x10E6/uL
same,HEMATOCRIT,[3],33.17%
same,HEMOGLOBIN,[3],13.3 G/DL
same,LEUKOCYTE COUNT,[3],15.5 x10E3/uL
same,LYMPHOCYTE,[3],83.67%
same,MEAN CORPUSCULAR HEMOGLOBIN,[3],24.53 pg
same,MEAN CORPUSCULAR HEMOGLOBIN CONCENTRATION,[3],40.1 G/DL
same,MEAN CORPUSCULAR VOLUME,[3],61.2 fL
same,MONOCYTE,[3],4.67%
same,NEUTROPHIL,[3],11.67%
same,NUCLEATED RED BLOOD CELLS,[3],0 /100WBC
same,PLATELET COUNT,[3],1290.67 x10E3/uL
same,ALANINE AMINOTRANSFERASE,[3],49.67 u/L
same,ALBUMIN,[3],4.17 G/DL
same,ALKALINE PHOSPHATASE,[3],428.33 u/L
same,ASPARTATE AMINOTRANSFERASE,[3],78.33 u/L
same,BLOOD UREA NITROGEN,[3],15.67 mg/dL
same,CARBON DIOXIDE,[3],26.67 mmol/L
same,CHLORIDE,[3],103 MEQ/L
same,CHOLESTEROL,[3],70.33 mg/dL
same,CREATINE PHOSPHOKINASE,[3],223 u/L
same,CREATININE,[3],0.2 mg/dL
same,GLUCOSE,[3],155 mg/dL
same,LACTATE DEHYDROGENASE,[3],102.33 u/L
same,LIPASE,[3],9.67 u/L
same,PHOSPHORUS,[3],12.67 mg/dL
same,POTASSIUM,[3],6.48 MEQ/L
same,SODIUM,[3],145.77 MEQ/L
same,TOTAL BILIRUBIN,[3],0.2 mg/dL
same,TOTAL PROTEIN,[3],5.53 G/DL
same,URIC ACID,[3],1.37 mg/dL
same,ABSOLUTE BASOPHIL,[4],0 CELLS/uL
same,ABSOLUTE EOSINOPHIL,[4],62.33 CELLS/uL
same,ABSOLUTE LYMPHOCYTE,[4],16836 CELLS/uL
same,ABSOLUTE MONOCYTE,[4],0 CELLS/uL
same,ABSOLUTE SEGMENTED NEUTROPHIL,[4],2301.67 CELLS/uL
same,BASOPHIL,[4],0%
same,EOSINOPHIL,[4],0.33%
same,ERYTHROCYTE COUNT,[4],5.65 x10E6/uL
same,HEMATOCRIT,[4],36.43%
same,HEMOGLOBIN,[4],14.37 G/DL
same,LEUKOCYTE COUNT,[4],19.2 x10E3/uL
same,LYMPHOCYTE,[4],87.67%
same,MEAN CORPUSCULAR HEMOGLOBIN,[4],25.5 pg
same,MEAN CORPUSCULAR HEMOGLOBIN CONCENTRATION,[4],39.47 G/DL
same,MEAN CORPUSCULAR VOLUME,[4],64.63 fL
same,MONOCYTE,[4],0%
same,NEUTROPHIL,[4],12%
same,NUCLEATED RED BLOOD CELLS,[4],1 /100WBC
same,PLATELET COUNT,[4],1284.33 x10E3/uL
same,ALANINE AMINOTRANSFERASE,[4],50 u/L
same,ALBUMIN,[4],4.2 G/DL
same,ALKALINE PHOSPHATASE,[4],416.67 u/L
same,ASPARTATE AMINOTRANSFERASE,[4],71.67 u/L
same,BLOOD UREA NITROGEN,[4],16.67 mg/dL
same,CARBON DIOXIDE,[4],23.67 mmol/L
same,CHLORIDE,[4],102 MEQ/L
same,CHOLESTEROL,[4],77 mg/dL
same,CREATINE PHOSPHOKINASE,[4],254.67 u/L
same,CREATININE,[4],0.2 mg/dL
same,GLUCOSE,[4],151 mg/dL
same,LACTATE DEHYDROGENASE,[4],91.33 u/L
same,LIPASE,[4],10.33 u/L
same,PHOSPHORUS,[4],13.03 mg/dL
same,POTASSIUM,[4],6.54 MEQ/L
same,SODIUM,[4],144.77 MEQ/L
same,TOTAL BILIRUBIN,[4],0.23 mg/dL
same,TOTAL PROTEIN,[4],5.93 G/DL
same,URIC ACID,[4],1.57 mg/dL

# Source: ChEMBL document CHEMBL3885881, “DrugMatrix”
